This passage reports IC50 results from patent publication US20250163022A1, “PARP1 INHIBITORS” (Synnovation Therapeutics, Inc., priority 2021, published 2025).

Some results are limits rather than exact numbers.

This assay has as its target T1, PARP1 (Homo sapiens, UniProt P09874).
T1 construct: HeLa cells (wide-type with PARP1 gene) were purchased from ATCC; host or cells: HeLa (wild type)
Kind of assay: In-Cell Western measurement of PARylation in PARP1 WT and knockout cells. It counts as cell-based. To be noted: HeLa cells (wide-type with PARP1 gene); hydrogen peroxide-induced PARylation; compounds 30 min, then 10 mM hydrogen peroxide 15 min; read-out: HeLa_WT_IC50. The source says:
The purpose of this cell-based assay is to measure the potency and selectivity of synthesized PARP inhibitors in suppressing hydrogen peroxide-induced PARylation in cells with and without PARP1 expression. Several cell lines were used in this assay. The human PARP1 knockout HEK-293T cell line (#ab266598) was purchased from Abcam, and its corresponding wide-type control is the human wild-type HEK-293T cell line (#ab255449). The HAP1 isogenic cell lines with and without the PARP1 gene (#HZGHC003943c006) were purchased from Horizon Discovery. HeLa cells (wide-type with PARP1 gene) were purchased from ATCC. Cells were cultured using complete medium containing 10% fetal bovine serum. One day before the assay, cells were seeded in 96-well plates at the density of 20,000 cells per well in 100 uL complete medium. Compounds were dissolved using DMSO and diluted to the working concentrations using complete medium. Cells were pre-treated with compounds for 30 min and then stimulated with 10 mM hydrogen peroxide for 15 min. After stimulation, cells were immediately fixed using ice-cold methanol for 20 min. After fixation, cells were washed using 1×PBST buffer for 3 times, 5 min each time, to eliminate residual methanol. Cells were blocked for 2 h at room temperature in blocking buffer (LI-COR Biosciences, #927-70001). Primary antibody was diluted in diluent buffer (LI-COR Biosciences, #927-75001, 1:200) at 50 uL per well. Cells were incubated with the primary antibody at 4° C. for 18 h. The wells were then washed using 1×PBST for 3 times, 5 min each time. IRDye® 680RD Goat anti-Mouse IgG (H+L) secondary antibody was diluted at 1/2000 using the diluent buffer and added at 100 μL per well. Secondary antibody incubation was for 1 h at room temperature. Cells were then washed using 1×PBST for 3 times, 5 min each time. The signal was detected and analyzed using LI-COR Odyssey DLx Imaging system. Data were collected and further processed using GraphPad Prism for IC50 estimation.

T1 sequence (P09874 whole entry): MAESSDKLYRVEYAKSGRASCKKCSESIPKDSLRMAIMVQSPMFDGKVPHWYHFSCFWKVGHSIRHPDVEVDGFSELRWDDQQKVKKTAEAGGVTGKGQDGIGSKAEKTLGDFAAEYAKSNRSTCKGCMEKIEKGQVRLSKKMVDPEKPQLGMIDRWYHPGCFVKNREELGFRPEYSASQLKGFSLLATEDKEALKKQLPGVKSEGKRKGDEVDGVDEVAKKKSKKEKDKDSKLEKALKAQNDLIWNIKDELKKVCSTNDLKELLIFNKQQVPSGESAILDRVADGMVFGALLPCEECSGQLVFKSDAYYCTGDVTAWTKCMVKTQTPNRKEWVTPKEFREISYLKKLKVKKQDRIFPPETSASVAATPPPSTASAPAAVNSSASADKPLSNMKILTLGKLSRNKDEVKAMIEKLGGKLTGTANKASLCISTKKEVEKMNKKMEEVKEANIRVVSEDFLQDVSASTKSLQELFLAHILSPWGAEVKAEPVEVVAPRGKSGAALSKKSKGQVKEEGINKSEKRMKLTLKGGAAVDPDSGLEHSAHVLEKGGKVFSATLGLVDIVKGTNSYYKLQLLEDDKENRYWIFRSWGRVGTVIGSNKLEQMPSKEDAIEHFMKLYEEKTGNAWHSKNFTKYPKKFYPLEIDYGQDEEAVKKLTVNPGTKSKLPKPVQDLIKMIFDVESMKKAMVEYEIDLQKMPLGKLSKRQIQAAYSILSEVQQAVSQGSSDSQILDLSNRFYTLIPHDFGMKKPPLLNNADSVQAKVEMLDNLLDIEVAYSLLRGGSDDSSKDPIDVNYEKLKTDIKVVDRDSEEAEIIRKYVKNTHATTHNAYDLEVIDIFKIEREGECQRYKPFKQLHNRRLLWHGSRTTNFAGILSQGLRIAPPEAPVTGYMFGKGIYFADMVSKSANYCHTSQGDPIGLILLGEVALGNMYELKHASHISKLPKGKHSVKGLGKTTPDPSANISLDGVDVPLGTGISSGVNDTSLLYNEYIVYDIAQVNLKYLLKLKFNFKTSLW

Take `CNC(=O)c1ccc(N2CCN(Cc3ccc4c(=O)n(CC(F)F)c(=O)[nH]c4c3)CC2)cn1` [Compound I-12, 5-(4-((3-(2,2-Difluoroethyl)-2,4-dioxo-1,2,3,4-tetrahydroquinazolin-7-yl)methyl)piperazin-1-yl)-N-methylpicolinamide]: the IC50 is at most 10 nM.
For `CCn1c(=O)[nH]c2c(F)c(CN3CCN(c4ccc(C(=O)NC)nc4C)CC3)ccc2c1=O` [Compound I-21, 5-(4-((3-ethyl-8-fluoro-2,4-dioxo-1,2,3,4-tetrahydroquinazolin-7-yl)methyl)piperazin-1-yl)-N,6-dimethylpicolinamide], the IC50 was at most 10 nM.
As for `CCN1C(=O)Nc2c(F)c(CN3CCN(c4ccc(C(=O)NC5CCC5)nc4C)CC3)cc3ncnc1c23` [Compound I-96, N-cyclobutyl-5-(4-((3-ethyl-9-fluoro-2-oxo-2,3-dihydro-1H-pyrimido[4,5,6-de]quinazolin-8-yl)methyl)piperazin-1-yl)-6-methylpicolinamide], the IC50 is at most 10 nM.
The result for `CCN1C(=O)Nc2c(F)c(CN3CCN(c4ccc(C(=O)NC5CN(C)C5)nc4C)CC3)cc3ncnc1c23` [Compound I-71, 5-(4-((3-ethyl-9-fluoro-2-oxo-2,3-dihydro-1H-pyrimido[4,5,6-de]quinazolin-8-yl)methyl)piperazin-1-yl)-6-methyl-N-(1-methylazetidin-3-yl)picolinamide] reads at most 10 nM.
With `CNC(=O)c1ccc(N2CCN(Cc3cnc4c5c(c(=O)[nH]c4c3)CCC5)CC2)c(F)n1` [Compound I-24, 6-Fluoro-N-methyl-5-(4-((6-oxo-6,7,8,9-tetrahydro-5H-cyclopenta[c][1,5]naphthyridin-3-yl)methyl)piperazin-1-yl)picolinamide], the IC50 was at most 10 nM.
For the molecule `CCn1c(=O)[nH]c2c(F)c(CN3CCN(c4ccc(C(=O)NC)nc4C)CC3)cc(Cl)c2c1=O` [Compound I-39, 5-(4-((5-chloro-3-ethyl-8-fluoro-2,4-dioxo-1,2,3,4-tetrahydroquinazolin-7-yl)methyl)piperazin-1-yl)-N,6-dimethylpicolinamide], the IC50 was at most 10 nM.
The result for `CCn1c(=O)[nH]c2c(F)c(CN3CCN(c4ccc(C(=O)NC)nc4C)CC3)cc(CO)c2c1=O` [Compound I-41, 5-(4-((3-Ethyl-8-fluoro-5-(hydroxymethyl)-2,4-dioxo-1,2,3,4-tetrahydroquinazolin-7-yl)methyl)piperazin-1-yl)-N,6-dimethylpicolinamide] reads at most 10 nM.
The result for `CCn1c(=O)[nH]c2cc(CN3CCN(c4ccc(C(=O)NC)nc4F)CC3)ccc2c1=O` [Compound I-29, 5-(4-((3-Ethyl-2,4-dioxo-1,2,3,4-tetrahydroquinazolin-7-yl)methyl)piperazin-1-yl)-6-fluoro-N-methylpicolinamide] reads at most 10 nM; that for `CNC(=O)c1ccc(N2CCN(Cc3cc(C4CC4)c4c(=O)n(C)c(=O)[nH]c4c3F)CC2)c(C)n1` [Compound I-49, 5-(4-((5-Cyclopropyl-8-fluoro-3-methyl-2,4-dioxo-1,2,3,4-tetrahydroquinazolin-7-yl)methyl)piperazin-1-yl)-N,6-dimethylpicolinamide], at most 10 nM.
As for `CCN1C(=O)Nc2c(F)c(CN3CCN(c4ccc(C(=O)N[C@H]5CC[C@@H](C#N)CC5)nc4C)CC3)cc3ncnc1c23` [Compound I-74, N-((1s,4s)-4-cyanocyclohexyl)-5-(4-((3-ethyl-9-fluoro-2-oxo-2,3-dihydro-1H-pyrimido[4,5,6-de]quinazolin-8-yl)methyl)piperazin-1-yl)-6-methylpicolinamide], the figure is 10 to 100 nM.
`CNC(=O)c1ccc(N2CCN(Cc3cc(OC)c4c(=O)n(C)c(=O)[nH]c4c3F)CC2)c(C)n1` [Compound I-38, 5-(4-((8-Fluoro-5-methoxy-3-methyl-2,4-dioxo-1,2,3,4-tetrahydroquinazolin-7-yl)methyl)piperazin-1-yl)-N,6-dimethylpicolinamide]: the IC50 is at most 10 nM.
